In data set [1] the test system is Z α1‐antitrypsin polymers in CHO cells. The data set is described as follows: Soluble and insoluble polymers in CHO cells expressing Z α1‐antitrypsin (NP‐40 fractions, 2C1 immunoprecipitation, immunoblot). The note with it: pre‐treatment 48 h with 10 μM GSK716, CHO cells induced with doxycycline. Type of data set: cell-based. The procedure:
Figure 2 GSK716 inhibits polymerisation of Z α1‐antitrypsin in cell models of disease • A GSK716 was added to CHO‐TET‐ON‐Z‐A1AT cells (Ordóñez et al, 2013) with simultaneous induction of Z α1‐antitrypsin expression using doxycycline, and polymer load was quantified with the 2C1 monoclonal antibody that is specific to pathological polymers of α1‐antitrypsin (Miranda et al, 2010). […] Data were normalised to vehicle and a control compound from the GSK716 series at saturating concentration. […] It induced an approximately threefold increase in secreted levels of Z α1‐antitrypsin compared with vehicle control. This was apparent even after polymers had been allowed to form. Scale bar: 100 µm. Data presented as mean ± SD, n = 8 (secretion) and n = 6 (polymer inhibition). • E CHO tetracycline‐inducible cells expressing Z α1‐antitrypsin were induced with 0.5 μg/ml doxycycline for 48 h and treated with 10 μM GSK716. […] For every time point, NP‐40‐soluble and NP‐40‐insoluble fractions were separated and immunoprecipitated with the 2C1 mAb and resolved by 4–12% w/v SDS–PAGE and α1‐antitrypsin detected by immunoblotting. […] Cell viability was measured by Cell Counting Kit‐8. […] Samples were resolved by 4–12% w/v acrylamide SDS–PAGE and detected by autoradiography. • H The graphs show the effect of GSK716 on intracellular and extracellular Z α1‐antitrypsin (mean ± SEM, n = 2). […]
(In general: Immunoblotting shows a protein as a band on a membrane.)

The target of a further data set is antithrombin (Homo sapiens, UniProt P01008). In words: Inhibitory activity of antithrombin against thrombin. Type of data set: biochemical. The procedure:
Figure 5 The effect of GSK716 on serpin inhibitory activity • α1‐Antitrypsin was incubated at varying molar ratios with the model protease bovine α‐chymotrypsin, and the residual protease activity determined. The intercept of the regression with the abscissa reflects the number of molecules of α1‐antitrypsin required to inhibit one molecule of chymotrypsin in the presence (+c) and absence (−c) of 50µM GSK716. Error bars reflect ± SEM of three independent experiments. • M α1‐antitrypsin was incubated with different molar ratios of chymotrypsin and resolved by SDS–PAGE. The position of covalent α1‐antitrypsin‐chymotrypsin complex (cpx), native (nat) and cleaved (clv) is shown. • The inhibitory activity of α1‐antichymotrypsin against chymotrypsin (ach + chym), neuroserpin against trypsin (neus + tryp), and antithrombin against thrombin (atiii + thrombin) was determined in the presence and absence of GSK716. Error bars reflect ± SD of two independent experiments.
GSK716 selectivity and PK properties were profiled in order to investigate the suitability of GSK716 for progression into in vivo studies and the potential for taking it forward as a clinical candidate for testing in humans. Since GSK716 results in loss of inhibitory activity of α1‐antitrypsin, the effect of the compound was assessed on other closely related serpins. […]

Another data set has as its target Adrenergic α1B (Homo sapiens, UniProt P35368). In words: Off‐target panel: Adrenergic α1B. Type of data set: cell-based. The procedure: (§1) GSK716 selectivity and PK properties were profiled in order to investigate the suitability of GSK716 for progression into in vivo studies and the potential for taking it forward as a clinical candidate for testing in humans. Since GSK716 results in loss of inhibitory activity of α1‐antitrypsin, the effect of the compound was assessed on other closely related serpins. […] Furthermore, there were no off‐target effects in a panel of assays considered predictive of known safety liabilities that precluded further development of GSK716 (Table EV1).

The next data set concerns the target Bile Salt Export Pump (Homo sapiens, UniProt O95342). In words: Off‐target panel: Bile Salt Export Pump. As to conditions: Inhibition, read-out: Mean (PXC50) (converted). Type of data set: in vitro ADME. The procedure: as §1
The next data set concerns the target Cannabinoid CB2 (Homo sapiens, UniProt P34972). In words: Off‐target panel: Cannabinoid CB2. Format: cell-based. The procedure: as §1
Another data set addresses OPRM1 (Homo sapiens, UniProt P35372). The data set is described as follows: Off‐target panel: OPRM1. Type of data set: cell-based. The procedure:
as §1

The next data set has as its target Serotonin 5HT1B (Homo sapiens, UniProt P28222). In words: Off‐target panel: Serotonin 5HT1B (DRX). Format: cell-based. The procedure:
as §1

The next data set deals with Serotonin 5HT2A (Homo sapiens, UniProt P28223). In words: Off‐target panel: Serotonin 5HT2A (DRX). Type of data set: cell-based. The procedure:
as §1

Structures are written as SMILES.

Sequence of Serotonin 5HT1B (P28222 whole entry): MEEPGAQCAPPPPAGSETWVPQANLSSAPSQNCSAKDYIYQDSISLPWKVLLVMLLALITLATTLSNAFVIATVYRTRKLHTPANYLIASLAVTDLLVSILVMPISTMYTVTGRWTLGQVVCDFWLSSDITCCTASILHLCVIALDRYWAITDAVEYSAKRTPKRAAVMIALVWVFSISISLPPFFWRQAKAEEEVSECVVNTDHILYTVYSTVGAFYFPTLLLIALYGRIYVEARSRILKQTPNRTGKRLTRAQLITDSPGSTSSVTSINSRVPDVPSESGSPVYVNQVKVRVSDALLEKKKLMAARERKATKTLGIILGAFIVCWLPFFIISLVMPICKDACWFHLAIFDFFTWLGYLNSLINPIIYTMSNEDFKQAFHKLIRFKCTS
Sequence of Serotonin 5HT2A (P28223 whole entry): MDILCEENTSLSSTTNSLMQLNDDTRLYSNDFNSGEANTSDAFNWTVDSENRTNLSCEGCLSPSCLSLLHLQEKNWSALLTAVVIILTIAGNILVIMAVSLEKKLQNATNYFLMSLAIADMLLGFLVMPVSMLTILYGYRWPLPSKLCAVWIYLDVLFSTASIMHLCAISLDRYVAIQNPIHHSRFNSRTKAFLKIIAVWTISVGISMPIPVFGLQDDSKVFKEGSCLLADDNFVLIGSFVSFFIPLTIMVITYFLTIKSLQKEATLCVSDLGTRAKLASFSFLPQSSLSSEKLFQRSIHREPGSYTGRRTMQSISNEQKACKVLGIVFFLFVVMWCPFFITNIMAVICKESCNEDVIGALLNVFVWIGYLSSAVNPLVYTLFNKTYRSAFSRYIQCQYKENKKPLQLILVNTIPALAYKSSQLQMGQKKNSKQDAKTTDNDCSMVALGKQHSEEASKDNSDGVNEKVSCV
Sequence of antithrombin (P01008 33-464): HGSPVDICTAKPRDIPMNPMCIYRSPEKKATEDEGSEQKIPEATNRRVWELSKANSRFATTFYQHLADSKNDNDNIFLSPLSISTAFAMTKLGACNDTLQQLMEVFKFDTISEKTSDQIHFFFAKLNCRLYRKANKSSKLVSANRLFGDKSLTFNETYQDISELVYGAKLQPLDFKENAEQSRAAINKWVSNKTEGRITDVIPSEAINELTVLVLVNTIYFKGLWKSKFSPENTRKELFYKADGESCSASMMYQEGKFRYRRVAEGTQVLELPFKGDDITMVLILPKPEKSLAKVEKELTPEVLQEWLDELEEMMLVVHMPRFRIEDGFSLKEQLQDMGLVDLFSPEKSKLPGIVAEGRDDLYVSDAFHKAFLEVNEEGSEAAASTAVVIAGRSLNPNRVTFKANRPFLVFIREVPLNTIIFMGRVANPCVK
Sequence of Adrenergic α1B (P35368 whole entry): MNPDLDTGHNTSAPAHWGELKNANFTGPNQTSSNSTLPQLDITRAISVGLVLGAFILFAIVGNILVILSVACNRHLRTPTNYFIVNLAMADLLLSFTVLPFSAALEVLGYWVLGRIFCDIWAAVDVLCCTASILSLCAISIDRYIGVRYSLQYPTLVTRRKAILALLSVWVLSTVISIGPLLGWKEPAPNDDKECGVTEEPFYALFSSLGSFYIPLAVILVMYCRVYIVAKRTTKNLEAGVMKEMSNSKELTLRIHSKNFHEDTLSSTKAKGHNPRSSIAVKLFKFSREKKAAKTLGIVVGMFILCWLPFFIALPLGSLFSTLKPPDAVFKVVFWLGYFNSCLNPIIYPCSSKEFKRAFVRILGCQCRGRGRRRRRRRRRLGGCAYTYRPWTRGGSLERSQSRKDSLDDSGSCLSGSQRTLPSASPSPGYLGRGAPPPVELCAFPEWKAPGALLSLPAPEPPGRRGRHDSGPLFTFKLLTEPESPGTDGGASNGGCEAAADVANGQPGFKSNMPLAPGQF
Sequence of OPRM1 (P35372 whole entry, species assumed): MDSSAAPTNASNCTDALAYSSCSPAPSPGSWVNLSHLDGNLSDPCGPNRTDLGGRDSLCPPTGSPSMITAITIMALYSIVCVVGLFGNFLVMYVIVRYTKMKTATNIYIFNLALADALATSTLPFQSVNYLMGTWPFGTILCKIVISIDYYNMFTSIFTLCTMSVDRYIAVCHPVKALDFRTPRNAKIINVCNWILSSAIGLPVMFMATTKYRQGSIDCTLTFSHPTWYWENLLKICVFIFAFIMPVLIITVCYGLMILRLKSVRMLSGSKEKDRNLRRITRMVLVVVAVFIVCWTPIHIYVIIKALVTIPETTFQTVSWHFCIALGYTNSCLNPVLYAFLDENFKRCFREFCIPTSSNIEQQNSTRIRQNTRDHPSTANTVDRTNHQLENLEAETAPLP
Sequence of Bile Salt Export Pump (O95342 whole entry, species assumed): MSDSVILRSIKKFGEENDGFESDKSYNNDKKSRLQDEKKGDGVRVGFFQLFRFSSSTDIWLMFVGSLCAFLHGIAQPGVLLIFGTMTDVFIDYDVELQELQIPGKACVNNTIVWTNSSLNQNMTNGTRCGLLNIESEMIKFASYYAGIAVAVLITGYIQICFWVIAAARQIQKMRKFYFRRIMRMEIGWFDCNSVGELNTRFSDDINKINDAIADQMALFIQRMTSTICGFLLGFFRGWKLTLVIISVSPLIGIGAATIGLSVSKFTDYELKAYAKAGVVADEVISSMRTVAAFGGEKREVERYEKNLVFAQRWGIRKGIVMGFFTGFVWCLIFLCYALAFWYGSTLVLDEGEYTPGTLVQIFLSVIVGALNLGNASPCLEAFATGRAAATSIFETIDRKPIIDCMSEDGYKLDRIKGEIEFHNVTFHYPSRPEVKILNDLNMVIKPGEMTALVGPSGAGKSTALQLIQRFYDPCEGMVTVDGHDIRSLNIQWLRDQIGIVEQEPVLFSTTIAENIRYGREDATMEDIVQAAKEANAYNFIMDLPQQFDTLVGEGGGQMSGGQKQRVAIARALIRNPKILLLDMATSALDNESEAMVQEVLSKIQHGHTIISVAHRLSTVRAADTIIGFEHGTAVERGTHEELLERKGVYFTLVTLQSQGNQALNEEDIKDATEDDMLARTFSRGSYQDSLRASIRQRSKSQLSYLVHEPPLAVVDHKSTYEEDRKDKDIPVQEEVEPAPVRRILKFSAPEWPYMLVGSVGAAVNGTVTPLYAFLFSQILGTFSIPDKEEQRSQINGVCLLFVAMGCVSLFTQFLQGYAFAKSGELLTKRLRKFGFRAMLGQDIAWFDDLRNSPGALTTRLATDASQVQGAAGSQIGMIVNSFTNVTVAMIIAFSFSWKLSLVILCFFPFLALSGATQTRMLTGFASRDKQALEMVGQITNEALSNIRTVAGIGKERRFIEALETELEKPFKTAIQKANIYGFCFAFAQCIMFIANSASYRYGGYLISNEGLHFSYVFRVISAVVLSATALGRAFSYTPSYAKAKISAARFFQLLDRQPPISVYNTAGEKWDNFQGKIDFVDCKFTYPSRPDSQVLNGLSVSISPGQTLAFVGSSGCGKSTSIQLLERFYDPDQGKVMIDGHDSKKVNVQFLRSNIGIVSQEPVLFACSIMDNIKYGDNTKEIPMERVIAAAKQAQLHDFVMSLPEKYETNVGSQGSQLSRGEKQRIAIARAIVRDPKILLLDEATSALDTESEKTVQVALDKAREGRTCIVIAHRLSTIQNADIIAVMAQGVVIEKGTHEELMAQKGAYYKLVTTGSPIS
Sequence of Cannabinoid CB2 (P34972 whole entry): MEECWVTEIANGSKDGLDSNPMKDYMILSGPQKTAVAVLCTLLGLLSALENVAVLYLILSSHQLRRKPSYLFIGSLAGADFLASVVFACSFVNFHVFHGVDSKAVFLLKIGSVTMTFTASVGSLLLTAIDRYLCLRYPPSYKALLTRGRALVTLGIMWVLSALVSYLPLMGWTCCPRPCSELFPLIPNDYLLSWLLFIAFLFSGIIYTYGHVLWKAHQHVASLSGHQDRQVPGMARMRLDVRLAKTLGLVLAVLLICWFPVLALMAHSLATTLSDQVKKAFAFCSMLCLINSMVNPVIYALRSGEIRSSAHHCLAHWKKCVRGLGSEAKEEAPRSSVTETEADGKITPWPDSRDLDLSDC

Usually EC50 stands for the concentration at which the effect is half-maximal. A high value points to weaker potency. In the case of `CCC[C@@H](NC(=O)c1cccc2c1CC(=O)N2)[C@@H](O)c1cccc(F)c1C` [GSK716], the “formation of soluble and insoluble polymers” value in data set [1] is on record as “significantly reduced”. In addition, at antithrombin, the “inhibitory activity of antithrombin towards its cognate protease” value is “did not affect”. Further, the IC50 at Adrenergic α1B was above 25.1 µM; on Bile Salt Export Pump, 100 µM; against Serotonin 5HT1B, above 100 µM; against Serotonin 5HT2A, 63.1 µM. Also, the EC50 on Cannabinoid CB2, at OPRM1, at Serotonin 5HT1B and on Serotonin 5HT2A was above 100 µM each time.

Source of the values: article PMC7933930, “Development of a small molecule that corrects misfolding and increases secretion of Z α1‐antitrypsin” (EMBO Molecular Medicine, 2021).
